The term melting point denotes the temperature, or range, at which the solid turns liquid.

Structures are written as SMILES.

Regarding `Cn1cnc(CNC(=O)c2ccnc(N3CCN(Cc4ccc(F)cc4)C3=O)c2)c1`, the melting point was 174 to 176 °C.
`CCN(CC)c1ccc(C2(c3ccc(N(C)C)cc3)OC(=O)c3cc(N(C)C)ccc32)c(C)c1` (stereo unspecified) gave a melting point of 190 to 195 °C.
`CC(=O)OCc1c(-c2cc(Nc3cc4n(n3)CCN(C)C4)c(=O)n(C)n2)cccc1-n1ncc2cc(C(C)(C)C)cc(F)c2c1=O` came in with a melting point of 188 to 193 °C.
As for `Cc1ccc2cccc(OCc3cccc(NC(=O)CN4C(=O)c5ccccc5C4=O)c3C)c2n1`, the melting point lay in the range of 283 to 285 °C.
Turning to `Cc1ccc2nc(C)n(C3CCC(=O)NC3=O)c(=O)c2c1` (stereo unspecified), the melting point was 270 to 272 °C.
With `CCCNC(=O)c1cnc2c(C)cccn2c1=O` the figure was 138 to 140 °C; with `CCOC(=O)C=Cc1ccc(Cl)c(Cl)c1`, 56 °C.
`Clc1ccc(COC(CCCn2ccnc2)c2ccc(Cl)cc2Cl)c(Cl)c1` (stereo unspecified) came in with a melting point of 108 °C.
Compound `CC(C)(C)COc1ccc(N(CC(=O)O)C(=O)c2ccn(-c3ccc(F)cc3)c2)cc1C#N` came in with a melting point of 248 to 249 °C.
`CC(=O)OC1CSC(Oc2cccc(-c3cncc(F)c3)c2)C(OC(C)=O)C1OC(C)=O` (stereo unspecified) showed a melting point of 135 °C.
The compound `COC(=O)c1cc2cc(OC)c(OC)cc2nc1N` came in with a melting point of 227 to 229 °C.
As for `COc1ccc(CN2Cc3cncn3C(c3ccc(-c4ccc(Cl)cc4)cc3)C2=O)cc1` (stereo unspecified), the figure is 270 to 273 °C; as for `Cn1c(=N)c(C(=O)NCCO)c(O)c2cc(Cl)ccc21`, 234 to 237 °C; as for `O=C(O)CCCOc1ccc(Nc2ccccc2)cc1`, 110 to 111 °C.
Consider `Cn1nc(-c2c(F)cccc2Cl)nc1-c1ccc(Oc2ccccc2)cc1Cl`, for which the melting point was in the range of 135 to 140 °C.
Compound `NCc1cc(Cl)c(NC(=O)CN2CCN(CCCCC(c3ccc(F)cc3)c3ccc(F)cc3)CC2C(N)=O)c(Cl)c1` (stereo unspecified) yielded a melting point of 161 °C.
`CCCCCCCCCCCCCCOc1ccc(CNc2ccccc2CO)cc1` yielded a melting point of 72 to 75 °C.
`O=C1CC2(C(=O)N1)C(=O)N1CCCc3cc(Cl)cc2c31` (stereo unspecified) came in with a melting point of 268 to 269 °C.
As for `O=C1c2ccccc2C(=O)N1CCSc1ncccn1`, the figure is 149 to 150 °C; as for `N#Cc1ccc(Nc2nc(Cc3c(Cl)cccc3Cl)cc(NCCN3CCCC3)n2)cc1`, 80 to 85 °C.
Regarding `CCCc1ccc2c(c1CCC(=O)O)CCC(NS(=O)(=O)c1ccc(Cl)cc1)C2` (stereo unspecified), the melting point was 165 to 167 °C.
Take `Cc1cc(-n2c(C)ccc2-c2ccc(S(C)(=O)=O)cc2)ccc1-c1ccoc1`: the melting point lay in the range of 69 to 75 °C.
As for `CC(=O)Nc1cc(C)c([N+](=O)[O-])cn1`, the figure is 153 to 154 °C; as for `O=C(O)Cc1c(C(=O)O)c2cc(Oc3ccc(C(F)(F)F)cn3)ccc2n1-c1ccc(OC(F)(F)F)cc1`, 203 °C; as for `NC[C@H]1COc2ccc(F)c(-c3ccc(Cl)cc3Cl)c2O1`, 65 °C.
In turn, `COc1cc2c(cc1OC)CC(NC(=O)C1CCC(=O)N1)CC2` (stereo unspecified) registered a melting point of 195 to 196 °C.
As for `COc1ccc(C(=O)C(C)(C)Br)c(Cl)c1Cl`, the figure is 72 to 73 °C; as for `CCC1(CC)CN(C(C)(C)C)C(=O)C(CC)(CC)N1OC(=O)c1ccccc1`, 91 to 93 °C.
The compound `COc1ccc(C2CC(O)CCC2[N+](=O)[O-])cc1OC` (stereo unspecified) yielded a melting point of 126 to 127 °C.
As for `Clc1ccc(/C=C/c2ccc(Cl)cc2)cc1`, the figure is 176 °C.
In turn, `Cc1cc(N2C(=O)c3ccccc3C2=O)c(C)cc1N=CN(C)C` returned a melting point of 170 to 173 °C.
As for `Nc1ccc(Cl)c(C(=O)c2sc(Nc3ccc4nc[nH]c4c3)nc2N)c1Cl`, the figure is 235 to 237 °C; as for `CCCNC(=S)Nc1ccc(Oc2nc(OC)cc(OC)n2)c(C(=O)OC)n1`, 218 to 220 °C.
As for `CC1(C(=O)N2C[C@H](Sc3ccc(OCC(F)(F)F)cc3C(F)(F)F)C[C@H]2C(=O)NC2(C#N)CC2)CC1`, the figure is 66 to 76 °C.
In turn, `COC(=O)c1ccc(N2CCC(N(C)Cc3ccc(F)cc3)CC2)cc1` returned a melting point of 92 °C.
In turn, `COC(=O)COc1cccc2c(CCBr)c(C)oc12` registered a melting point of 146 to 148 °C.
As for `CN1CCN(c2ccc(Nc3ncc4ccc(-c5ccccc5OCC(=O)OC(C)(C)C)n4n3)cc2)CC1`, the melting point was in the range of 193 to 195 °C.
In turn, `COc1ccc(C(=O)Nc2ccc(-c3ccc4c(c3)OCO4)cc2)cc1CCCN(C)C` showed a melting point of 190 to 192 °C.
Compound `O=C(O)CCCC=Cc1nn(-c2ccc(Cl)cc2)c2c1CCC2` gave a melting point of 132 to 134 °C.
On to `COc1ccc2c(c1)C(=O)c1c-2cnc2ccccc12`, for which the melting point is 195 to 196 °C.
Turning to `COc1ccc(-c2cc(S(C)(=O)=O)nnc2-c2ccc(OC)cc2)cc1`, the melting point is 137 to 140 °C.
In the case of `CC1COc2c(N3Cc4ccc(N)cc4C3)c(F)cc3c(=O)c(C(=O)O)cn1c23` (stereo unspecified), the melting point lay in the range of 272 to 276 °C.
`CCCCN(CCCC)c1ccc(C=CC=CC2=C(C#N)C(=C(C#N)C#N)OC2(C)C)c(OC)c1`: the melting point was in the range of 181 to 184 °C.
Consider `Fc1cc(F)c(COc2cccnc2NC(=S)Nc2ccc(Cl)cc2)c(F)c1`, for which the melting point was 181 to 183 °C.
`OCc1ccc2c(c1)ncn2-c1cccc(Br)c1` gave a melting point of 107 to 109 °C.
With `Cc1ccnc2c1C(=O)CC(c1cccc(Cl)c1Cl)C2` (stereo unspecified) the figure was 123 to 124 °C; with `O=C(O)Cc1c(Cl)cc([N+](=O)[O-])cc1Cl`, 206 to 207 °C; with `CC1Oc2ccc(Cn3ccnc3)cc2NC1=O` (stereo unspecified), 219 to 222 °C.
As to `O=C1Cc2cc(C3=NNC(=O)C4CCC34)ccc2N1` (stereo unspecified), the melting point is 309 to 312 °C.
`CC(=O)OCc1ccc(-c2[nH]c(-c3cccc4ccccc34)nc2C(=O)OC(C)(C)C)cc1`: the melting point is 162 to 164 °C.
As for `CC1(C)Oc2cc([N+](=O)[O-])c(NC(=O)Cc3ccc(-c4ccccc4)cc3)cc2C2OC21` (stereo unspecified), the figure is 171 to 174 °C.
On to `C[Si](C)(C)CCOCn1c(-c2cnn(-c3c(Cl)cc(C(F)(F)F)cc3Cl)n2)nc([N+](=O)[O-])c1Br`, for which the melting point is 126 to 128 °C.
`N#Cc1ccc(N2CCN(Cc3cnc4c(c3)NC(=O)[C@@H]3CCCN43)CC2)c(Cl)c1` showed a melting point of 213 to 215 °C.
`c1ccc2c(c1)nc(-c1ccc3c(c1)OCO3)n2Cc1ccncc1`: the melting point was in the range of 166 to 167 °C.
Turning to `COc1ccc(S(=O)(=O)OCC(=O)CC(C)C2CCCCC2)cc1` (stereo unspecified), the melting point lay within 52 to 53 °C.
For `CCCOc1cc2c(cc1OCCC)CCC(C(=O)N1CCN(C(=O)c3cc(OC)c(OC)c(OC)c3)CC1)=C2`, the melting point was 124 to 126 °C.
`O=C1c2ccccc2-c2c1c1ccccc1c(=O)n2CCCCCO` showed a melting point of 144 to 146 °C.
As to `CN=C1SCN(C(C)(C)C)C(=O)N1C`, the melting point is 51 to 52 °C.
With `COc1ccc(S(=O)(=O)Nc2c(Cl)cccc2Cl)c2c1[nH]c1ccccc12` the figure was 201 to 205 °C.
Consider `CN1CN(C(=O)c2c(F)cccc2F)C(=O)N(c2ccc(Cl)cc2)C1`, for which the melting point came out at 140 °C.
`c1nc2cc3c(cc2[nH]1)OCO3` returned a melting point of 155 to 156 °C.
